pIC50: −log10 of the molar value.
What follows are compounds tested against T1, recombinant human GR (Homo sapiens, UniProt P04150) (assay: Human Glucocorticoid Receptor (GR) Assay (fluorescence polarization, Panvera/Invitrogen kit)). Conditions: fluorescence polarization; GS Red tracer; 2 hours at room temperature; 100% control 10 μM Dexamethasone; read-out: Inhibition of GR binding, IC50.
T1 construct: purchased Panvera/Invitrogen P2812 (kit P2893)
T1 sequence (P04150 1-777): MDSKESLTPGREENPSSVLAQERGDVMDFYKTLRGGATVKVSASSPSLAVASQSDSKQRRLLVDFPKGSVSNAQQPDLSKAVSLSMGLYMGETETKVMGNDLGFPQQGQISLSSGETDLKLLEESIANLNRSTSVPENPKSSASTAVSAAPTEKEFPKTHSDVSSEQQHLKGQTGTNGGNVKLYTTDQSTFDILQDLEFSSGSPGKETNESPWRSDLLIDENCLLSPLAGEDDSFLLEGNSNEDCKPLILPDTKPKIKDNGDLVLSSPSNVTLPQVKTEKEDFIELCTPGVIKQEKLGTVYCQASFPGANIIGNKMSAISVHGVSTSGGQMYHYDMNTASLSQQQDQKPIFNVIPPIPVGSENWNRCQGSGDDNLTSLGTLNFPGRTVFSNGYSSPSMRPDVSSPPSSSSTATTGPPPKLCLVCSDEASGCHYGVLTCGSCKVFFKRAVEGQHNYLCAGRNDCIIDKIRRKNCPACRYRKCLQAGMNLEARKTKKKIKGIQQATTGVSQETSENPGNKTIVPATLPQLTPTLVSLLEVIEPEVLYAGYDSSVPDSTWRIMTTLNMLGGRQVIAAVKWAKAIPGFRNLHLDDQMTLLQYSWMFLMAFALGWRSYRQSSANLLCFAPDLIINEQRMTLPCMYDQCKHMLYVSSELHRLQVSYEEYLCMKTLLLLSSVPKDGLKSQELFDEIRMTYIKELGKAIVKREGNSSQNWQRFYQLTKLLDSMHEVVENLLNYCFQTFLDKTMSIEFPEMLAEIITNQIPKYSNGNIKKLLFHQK
Format: binding
Summary of the method: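 Fluorescence polarization competition with recombinant GR and GS Red fluorescent ligand plus stabilizing peptide and DTT in potassium phosphate/sodium molybdate/EDTA buffer with DMSO. Incubated 2 hours at room temperature in the dark; 0% control DMSO, 100% control 10 μM dexamethasone.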

Row | Structure (SMILES) | pIC50
1 | C[C@]12Cc3cnn(-c4ccc(F)cc4)c3C=C1CC[C@@H]1[C@@H]2[C@@H](O)C[C@@]2(C)[C@H]1CC[C@]2(OC(=O)c1nccs1)C(=O)SCC#CCO [Example 41, (1R,3aS,3bS,10aR,10bS,11S,12aS)-7-(4-Fluorophenyl)-11-hydroxy-{[(4-hydroxy-but-2-yn-1-yl)thio]carbonyl}-10a,12a-dimethyl-1,2,3,3a,3b,4,5,7,10,10a,10b,11,12,12a-tetradecahydrocyclopenta[5,6]naphtho[1,2-f]indazol-1-yl 1,3-thiazole-2-carboxylate] | 8.39
2 | C[C@]12Cc3cnn(-c4ccc(F)cc4)c3C=C1CC[C@@H]1[C@@H]2[C@@H](O)C[C@@]2(C)[C@H]1CC[C@]2(OC(=O)c1nccs1)C(=O)SCF [Example 42, (1R,3aS,3bS,10aR,10bS,11S,12aS)-1-{[(Fluoromethyl)thio]carbonyl}-7-(4-fluoro-phenyl)-11-hydroxy-10a,12a-dimethyl-1,2,3,3a,3b,4,5,7,10,10a,10b,11,12,12a-tetradecahydrocyclopenta[5,6]naphtho[1,2-f]indazol-1-yl 1,3-thiazole-2-carboxylate] | 8.49
3 | C[C@]12Cc3cnn(-c4ccc(F)cc4)c3C=C1CC[C@@H]1[C@@H]2[C@@H](O)C[C@@]2(C)[C@H]1CC[C@]2(OC(=O)c1cocn1)C(=O)SCC#N [Example 43, (1R,3aS,3bS,10aR,10bS,11S,12aS)-1-{[(Cyanomethyl)thio]carbonyl}-7-(4-fluoro-phenyl)-11-hydroxy-10a,12a-dimethyl-1,2,3,3a,3b,4,5,7,10,10a,10b,11,12,12a-tetradecahydrocyclopenta[5,6]naphtho[1,2-f]indazol-1-yl 1,3-oxazole-4-carboxylate] | 8.57
4 | C[C@]12Cc3cnn(-c4ccc(F)cc4)c3C=C1CC[C@@H]1[C@@H]2[C@@H](O)C[C@@]2(C)[C@H]1CC[C@]2(OC(=O)c1cocn1)C(=O)SCCO [Example 44, (1R,3aS,3bS,10aR,10bS,11S,12aS)-7-(4-Fluorophenyl)-11-hydroxy-1-{[(2-hydroxy-ethyl)thio]carbonyl}-10a,12a-dimethyl-1,2,3,3a,3b,4,5,7,10,10a,10b,11,12,12a-tetradecahydrocyclopenta[5,6]naphtho[1,2-f]indazol-1-yl 1,3-oxazole-4-carboxylate] | 8.54
5 | C[C@]12Cc3cnn(-c4ccc(F)cc4)c3C=C1CC[C@@H]1[C@@H]2[C@@H](O)C[C@@]2(C)[C@H]1CC[C@]2(OC(=O)c1cocn1)C(=O)SCF [Example 45, (1R,3aS,3bS,10aR,10bS,11S,12aS)-1-{[(Fluoromethyl)thio]carbonyl}-7-(4-fluoro-phenyl)-11-hydroxy-10a,12a-dimethyl-1,2,3,3a,3b,4,5,7,10,10a,10b,11,12,12a-tetradecahydrocyclopenta[5,6]naphtho[1,2-f]indazol-1-yl 1,3-oxazole-4-carboxylate] | 8.47
6 | CC(=O)CSC(=O)[C@@]1(OC(=O)c2cocn2)CC[C@H]2[C@@H]3CCC4=Cc5c(cnn5-c5ccc(F)cc5)C[C@]4(C)[C@H]3[C@@H](O)C[C@@]21C [Example 46, (1R,3aS,3bS,10aR,10bS,11S,12aS)-7-(4-Fluorophenyl)-11-hydroxy-10a,12a-dimethyl-1-{[(2-oxopropyl)thio]carbonyl}-1,2,3,3a,3b,4,5,7,10,10a,10b,11,12,12a-tetradecahydropcyclopenta[5,6]naphtho[1,2-f]indazol-1-yl 1,3-oxazole-4-carboxylate] | 8.41
7 | Cn1cc(C(=O)O[C@]2(C(=O)SCC#N)CC[C@H]3[C@@H]4CCC5=Cc6c(cnn6-c6ccc(F)cc6)C[C@]5(C)[C@H]4[C@@H](O)C[C@@]32C)nn1 [Example 47, (1R,3aS,3bS,10aR,10bS,11S,12aS)-1-{[(Cyanomethyl)thio]carbonyl}-7-(4-fluoro-phenyl)-11-hydroxy-10a,12a-dimethyl-1,2,3,3a,3b,4,5,7,10,10a,10b,11,12,12a-tetradecahydrocyclopenta[5,6]naphtho[1,2-f]indazol-1-yl 1-methyl-1H-1,2,3-triazole-4-carboxylate] | 8.60

From patent US8163724B2, “Glucocorticosteroids, processes for their preparation, pharmaceutical compositions containing them and their use in therapy” (AstraZeneca AB, priority 2007, dated 2012)
